In patent US10781211B2, “Spirocycle compounds and methods of making and using same” (Lundbeck La Jolla Research Center, Inc., priority 2016, dated 2020):

How the values were obtained:
Format in all cases: in vivo
Conditions in all cases: 5 mg/kg oral gavage
ABHD6 = ABHD6 (Mus musculus (Mouse), UniProt Q8R2Y0); experiment: Mouse brain proteomes from inhibitor treated mice (oral gavage, sacrifice 4 h after administration, ABPP analysis), ABHD6
Experimental: (§1) Preparation of Mouse Brain Proteomes from Inhibitor Treated Mice.
(§2) Inhibitors were administered to wild-type C57Bl/6J by oral gavage in a vehicle, e.g. PEG400/Ethanol/PBS (7/2/1). Each animal was sacrificed 4 h following administration and brain proteomes were prepared and analyzed according to previously established methods (See Niphakis, M. J., et al. (2011) ACS Chem. Neurosci. and Long, J. Z., et al. Nat. Chem. Biol. 5:37-44). Data from this assay is shown in Table 2 (% inhibition at 5 mg/kg).

MAGL = MAGL (Mus musculus (Mouse), UniProt O35678); experiment: Mouse brain proteomes from inhibitor treated mice (oral gavage, sacrifice 4 h after administration, ABPP analysis)
Experimental: as §1, §2

FAAH = FAAH (Mus musculus (Mouse), UniProt O08914); experiment: Mouse brain proteomes from inhibitor treated mice (oral gavage, sacrifice 4 h after administration, ABPP analysis), FAAH
Experimental: as §1, §2

Sequence of MAGL (O35678 whole entry): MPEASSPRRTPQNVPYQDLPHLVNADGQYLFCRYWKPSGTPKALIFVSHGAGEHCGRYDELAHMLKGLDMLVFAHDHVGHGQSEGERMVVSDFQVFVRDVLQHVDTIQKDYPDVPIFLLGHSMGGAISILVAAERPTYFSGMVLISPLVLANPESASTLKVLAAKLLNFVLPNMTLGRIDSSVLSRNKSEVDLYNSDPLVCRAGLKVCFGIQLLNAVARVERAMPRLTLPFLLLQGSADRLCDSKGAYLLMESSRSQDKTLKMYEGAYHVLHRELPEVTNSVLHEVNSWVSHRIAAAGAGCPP
Sequence of FAAH (O08914 whole entry): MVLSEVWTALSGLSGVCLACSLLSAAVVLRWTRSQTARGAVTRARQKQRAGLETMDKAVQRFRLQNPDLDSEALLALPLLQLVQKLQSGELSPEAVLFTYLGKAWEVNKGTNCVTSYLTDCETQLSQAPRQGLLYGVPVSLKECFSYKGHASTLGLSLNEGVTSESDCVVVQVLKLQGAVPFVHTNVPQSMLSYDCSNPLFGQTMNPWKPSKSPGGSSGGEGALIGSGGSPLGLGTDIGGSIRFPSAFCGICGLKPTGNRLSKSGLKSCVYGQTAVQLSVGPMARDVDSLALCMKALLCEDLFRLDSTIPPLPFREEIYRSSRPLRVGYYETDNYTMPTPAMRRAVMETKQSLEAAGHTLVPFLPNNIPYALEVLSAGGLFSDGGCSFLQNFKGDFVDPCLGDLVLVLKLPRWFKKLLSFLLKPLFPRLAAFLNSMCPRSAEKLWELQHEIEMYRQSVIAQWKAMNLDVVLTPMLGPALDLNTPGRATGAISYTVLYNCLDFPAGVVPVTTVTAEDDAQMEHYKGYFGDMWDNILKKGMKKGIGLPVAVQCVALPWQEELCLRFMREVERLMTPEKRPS
Sequence of ABHD6 (Q8R2Y0 whole entry): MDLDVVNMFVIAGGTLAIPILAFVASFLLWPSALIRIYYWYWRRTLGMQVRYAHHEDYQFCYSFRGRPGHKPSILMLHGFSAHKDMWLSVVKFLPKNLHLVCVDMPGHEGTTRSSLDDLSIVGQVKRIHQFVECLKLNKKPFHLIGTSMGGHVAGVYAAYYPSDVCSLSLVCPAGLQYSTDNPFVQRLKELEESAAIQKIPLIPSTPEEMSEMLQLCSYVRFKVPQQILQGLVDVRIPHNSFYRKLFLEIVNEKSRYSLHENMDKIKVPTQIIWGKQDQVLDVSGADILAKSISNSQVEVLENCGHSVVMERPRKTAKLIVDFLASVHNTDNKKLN

Row | ABHD6 % Inh 5 mg/kg (mouse) (ABHD6) | MAGL % Inh 5 mg/kg (mouse) (MAGL) | FAAH % Inh 5 mg/kg (mouse) (FAAH) | SMILES
1 | # (# is < 25%) | ### (### is ≥ 75%) | # (# is < 25%) | CCOc1ccc(CN2CCCC23CCN(C(=O)OC(C(F)(F)F)C(F)(F)F)CC3)cc1 [Example 4, 1,1,1,3,3,3-Hexafluoropropan-2-yl 1-(4-ethoxybenzyl)-1,8-diazaspiro[4.5]decane-8-carboxylate]
2 | # (# is < 25%) | ### (### is ≥ 75%) | – | O=C(OC(C(F)(F)F)C(F)(F)F)N1CCC2(CCCN2Cc2cc(Cl)cc(N3CCOCC3)c2)CC1 [Example 33, 1,1,1,3,3,3-Hexafluoropropan-2-yl 1-(3-chloro-5-morpholinobenzyl)-1,8-diazaspiro[4.5]decane-8-carboxylate]
3 | # (# is < 25%) | ### (### is ≥ 75%) | – | O=C(OC(C(F)(F)F)C(F)(F)F)N1CCC2(CCCN2Cc2ccccc2Cl)CC1 [Example 60, 1,1,1,3,3,3-Hexafluoropropan-2-yl 1-(2-chlorobenzyl)-1,8-diazaspiro[4.5]decane-8-carboxylate]
4 | # (# is < 25%) | ### (### is ≥ 75%) | – | O=C(OC(C(F)(F)F)C(F)(F)F)N1CCC2(CCCN2Cc2ccc(Cl)cc2N2CCC2)CC1 [Example 107, 1,1,1,3,3,3-Hexafluoropropan-2-yl 1-(2-(azetidin-1-yl)-4-chlorobenzyl)-1,8-diazaspiro[4.5]decane-8-carboxylate]
5 | # (# is < 25%) | ### (### is ≥ 75%) | – | O=C(O)c1cc(CN2CCCC23CCN(C(=O)OC(C(F)(F)F)C(F)(F)F)CC3)ccc1C(F)(F)F [Example 179, 5-((8-((1,1,1,3,3,3-Hexafluoropropan-2-yloxy)carbonyl)-1,8-diazaspiro[4.5]decan-1-yl)methyl)-2-(trifluoromethyl)benzoic acid]
6 | – | ### (### is ≥ 75%) | # (# is < 25%) | N#Cc1cc(CN2CCCC23CCN(C(=O)OC(C(F)(F)F)C(F)(F)F)CC3)cc(N2CCC(C(=O)O)CC2)c1 [Example 210]

Continued, compound first:

Row | SMILES | ABHD6 % Inh 5 mg/kg (mouse) (ABHD6) | MAGL % Inh 5 mg/kg (mouse) (MAGL) | FAAH % Inh 5 mg/kg (mouse) (FAAH)
7 | COc1cccc(CN2CCCC23CCN(C(=O)OC(C(F)(F)F)C(F)(F)F)CC3)c1Cl [Example 7, 1,1,1,3,3,3-Hexafluoropropan-2-yl 1-(2-chloro-3-methoxybenzyl)-1,8-diazaspiro[4.5]decane-8-carboxylate] | # (# is < 25%) | ### (### is ≥ 75%) | ### (### is ≥ 75%)
8 | COc1c(Cl)cccc1CN1CCCC12CCN(C(=O)OC(C(F)(F)F)C(F)(F)F)CC2 [Example 10, 1,1,1,3,3,3-Hexafluoropropan-2-yl 1-(3-chloro-2-methoxybenzyl)-1,8-diazaspiro[4.5]decane-8-carboxylate] | # (# is < 25%) | ### (### is ≥ 75%) | –
9 | O=C(OC(C(F)(F)F)C(F)(F)F)N1CCC2(CCCN2Cc2ccc(F)c(OCCF)c2)CC1 [Example 29, 1,1,1,3,3,3-Hexafluoropropan-2-yl 1-(4-fluoro-3-(2-fluoroethoxy)benzyl)-1,8-diazaspiro[4.5]decane-8-carboxylate] | ### (### is ≥ 75%) | ### (### is ≥ 75%) | –
10 | CS(=O)(=O)N1CCc2cccc(CN3CCCC34CCN(C(=O)OC(C(F)(F)F)C(F)(F)F)CC4)c2C1 [Example 146, 1,1,1,3,3,3-Hexafluoropropan-2-yl 1-((2-methanesulfonyl-1,2,3,4-tetrahydroisoquinolin-8-yl)methyl)-1,8-diazaspiro[4.5]decane-8-carboxylate] | – | ### (### is ≥ 75%) | # (# is < 25%)
11 | O=C(OC(C(F)(F)F)C(F)(F)F)N1CCC2(CCN(Cc3ccc(C(F)(F)F)c(N4CCCC4)c3)C2)CC1 [Example 157, 1,1,1,3,3,3-Hexafluoropropan-2-yl 2-(3-(pyrrolidin-1-yl)-4-(trifluoromethyl)benzyl)-2,8-diazaspiro[4.5]decane-8-carboxylate] | – | ### (### is ≥ 75%) | # (# is < 25%)
